Patent US20240342168A1, “SMALL MOLECULE INHIBITORS FOR ANTI-CANCER COMBINATION THERAPY” (UNIVERSITY OF CAPE TOWN, priority 2021, published 2024)

What was measured:
[1] = test system: p53; details: CRM1 inhibition, other cancers, literature; cited from earlier work
[2] = test system: p65 reporter activity in SiHa cells; assay: p65-luciferase reporter assay; assay type: cell-based; details: 30 μM single cisplatin treatment
Procedure: (§1) SiHa cells were transfected with 100 ng p65-luciferase reporter construct (containing five copies of the p65-binding site, Promega) or 200 ng p53-luciferase reporter construct (containing thirteen wildtype p53 binding sites, Addgene plasmid #16442, Addgene Plasmid Repository (el-Deiry W S, Tokino T, Velculescu V E, Levy D B, Parsons R, Trent J M, et al. WAF1, a potential mediator of p53 tumor suppression. Cell. 1993; 75(4):817-25) and 10 ng pRL-TK (encoding Renilla luciferase, Promega), using Genecellin transfection reagent (Celtic Molecular Diagnostics). The following day cells were treated with 5 μM INI-43 for 2 h, followed by 30 μM cisplatin for 24 h, and luciferase activity assayed using the Dual-Luciferase Report assay system (Promega), according to the manufacturer's instructions. Luciferase readings were measured using the Veritas™ microplate luminometer (Promega) and normalised to Renilla luciferase from the same extract.

[3] = test system: NFκB-p50 and NFκB-p65 in SiHa cells; assay: Immunofluorescence of NFκB nuclear localization; assay type: cell-based
Procedure: SiHa cells were plated on glass coverslips and treated for 24 h before fixation with 4% paraformaldehyde. Cells were permeabilised using 0.5% Triton-X-100/PBS and blocked using 1% BSA/PBST with 0.3 M Glycine. Primary antibody incubations were performed in 1% BSA/PBST, followed by secondary antibody incubation (Cy3 conjugated goat anti-rabbit, Jackson ImmunoResearch). Cell nuclei were counterstained with 0.5 μg/mL DAPI, and images captured using the Zeiss inverted fluorescence microscope under 100× oil immersion.

[4] = test system: p53, p21 and Mcl-1 in SiHa cells; assay: Western blot of p53 and p53 targets; assay type: cell-based
Procedure: (§2) For protein extraction, cells were washed with PBS and lysed using RIPA buffer (50 mM Tris-CI, pH 7.4, 150 mM NaCl, 1% (w/v) sodium deoxycholate, 0.1% (v/v) SDS, 1% (v/v) Triton X-100, 2 mM EGTA, 2 mM EDTA, 50 mM NaF, 5 mM Na2P2O7, 1× complete protease inhibitor cocktail (Roche) and 0.1 M Sodium Orthovanadate). For PARP cleavage analysis, dead cells were collected by centrifugation and combined with live cell lysates. Lysates were sonicated, centrifuged, and the supernatant quantified using the BCA Protein Assay Kit (Pierce, Thermo Scientific) according to the manufacturer's instructions. Proteins were subjected to Western blot analysis using the following antibodies: rabbit anti-Kpnβ1 (H-300, sc-11,367, Santa Cruz), rabbit anti-β-tubulin (H-235, sc-9104, Santa Cruz), rabbit anti-PARP1/2 antibody (H-250, sc-7150, Santa Cruz), mouse anti-GAPDH (0411, sc-47,724, Santa Cruz), rabbit anti-p21 (H-164, sc-756, Santa Cruz), rabbit anti-Mcl-1 (H-260, sc-20,679, Santa Cruz), mouse anti-cyclin D1 (HD11, sc-246, Santa Cruz), rabbit anti-c-Myc (N-262, sc-764, Santa Cruz), mouse anti-p53 (DO-7, M7001, DakoCytomation), mouse anti-XIAP (610,763, BD Biosciences), and rabbit anti-phospho-Histone H2AX (γH2AX, Ser139, 20E3, #9718, Cell Signal).

[5] = test system: p53 reporter activity in SiHa cells; assay: p53-luciferase reporter assay; assay type: cell-based; details: single cisplatin treatment
Procedure: as §1

[6] = test system: cyclin D1, c-Myc and XIAP; assay: Western blot of NFκB targets; assay type: cell-based; details: single cisplatin treatment
Procedure: as §2

[7] = test system: C33A; assay: MTT cell viability / cisplatin IC50 determination; assay type: cell-based; details: 48-h treatment, no INI-43 pre-treatment
Procedure: (§3) HeLa, SiHa, CaSki and C33A cell lines were purchased from the American Type Culture Collection (ATCC) and maintained in Dulbecco's Modified Eagle's Medium (DMEM, Gibco, Life Technologies) containing 10% Fetal Bovine Serum (Gibco, Life Technologies), supplemented with 100 U/mL penicillin and 100 μg/mL streptomycin. Cells were cultured at 37° C. in a humidified chamber with 5% CO2. All cell lines were authenticated by DNA profiling using the Cell ID System (Promega, Madison, WI, USA).
(§4) Cells were plated in 96-well plates and subjected to single or CT (2 h INI-43 pre-treatment followed by cisplatin treatment, without removing IN1-43 from the media) for 48 h. Following treatment, MTT (Sigma) was added and 4 h later crystals solubilized using 10% SLS in 0.01 M HCl. Absorbencies were measured at 595 nm and IC50 values determined via plotting [Fa/(1-Fa)] in log scale against log cisplatin concentration, where:
(§5) The half inhibitory concentration was calculated using the formula IC50=10^x-intercept

[8] = test system: SiHa; assay: MTT cell viability / cisplatin IC50 determination; assay type: cell-based
Procedure: as §3, §4, §5

[9] = test system: HeLa; assay: MTT cell viability / cisplatin IC50 determination; assay type: cell-based
Procedure: as §3, §4, §5

[10] = test system: CaSki; assay: MTT cell viability / cisplatin IC50 determination; assay type: cell-based; details: 48-h treatment, no INI-43 pre-treatment
Procedure: as §3, §4, §5

[11] = test system: NFκB-p50 and NFκB-p65 in SiHa cells; assay: Nuclear/cytoplasmic fractionation and Western blot; assay type: cell-based; details: cisplatin treatment
Procedure: For protein extraction, cells were washed with PBS and lysed using RIPA buffer (50 mM Tris-CI, pH 7.4, 150 mM NaCl, 1% (w/v) sodium deoxycholate, 0.1% (v/v) SDS, 1% (v/v) Triton X-100, 2 mM EGTA, 2 mM EDTA, 50 mM NaF, 5 mM Na2P2O7, 1× complete protease inhibitor cocktail (Roche) and 0.1 M Sodium Orthovanadate). For PARP cleavage analysis, dead cells were collected by centrifugation and combined with live cell lysates. Lysates were sonicated, centrifuged, and the supernatant quantified using the BCA Protein Assay Kit (Pierce, Thermo Scientific) according to the manufacturer's instructions. […]
For nuclear/cytoplasmic protein extraction, cells were collected by trypsinization. […] The fractions were quantified using the BCA Protein Assay Kit (Pierce, Thermo Scientific) according to the manufacturer's instructions, followed by western blot analysis.

[12] = single cisplatin treatment at 30 μM and 60 μM
[13] = 48-h treatment, no INI-43 pre-treatment
[14] = Kpnβ1 knock-down (si-Kpnβ1) cells
[15] = control siRNA (si-ctrl) transfected cells

Compound | effect on p53 stability [1] | p65 reporter activity [2] | nuclear fluorescence relative to cytoplasmic fluorescence (Fc (Nu/Cy)) ([3]; single cisplatin treatment) | nuclear localization of NFκB-p50 and NFκB-p65 ([3]; single cisplatin treatment (30 μM), 24 h) | p53 protein levels ([4]; SiHa, single cisplatin treatment) | Mcl-1 levels [4, 12] | p21 levels [4, 12] | p53 reporter activity [5] | levels of cyclin D1 and c-Myc [6] | IC50 [7] [µM] | IC50 [8, 13] [µM] | IC50 [8, 14] [µM] | IC50 [8, 15] [µM] | IC50 [9, 13] [µM] | IC50 [9, 14] [µM] | IC50 [9, 15] [µM] | IC50 [10] [µM] | levels of NFκB-p50 and NFκB-p65 in the nucleus [11]
COc1cc(-c2ncn(/C=C\C(=O)OC(C)C)n2)cc(C(F)(F)F)c1 [KPT-185] | stabilize p53 |  |  |  |  |  |  |  |  |  |  |  |  |  |  |  |  | 
N.N.[Cl][Pt][Cl] [cisplatin, reference compound] |  | induced | significant increase | stimulated nuclear localization | increased | decreased | decreased | significantly reduced | elevated levels | 12.8 | 30.8 | 19.3 | 30.5 | 18 | 9.7 | 24.4 | 18.1 | increased levels
CCC(=C/[C@H](C)C/C=C/C(C)=C/[C@@H](C)C(=O)[C@@H](C)[C@H](O)[C@@H](C)C/C(C)=C/C(=O)O)/C=C/[C@@H]1OC(=O)C=C[C@@H]1C [leptomycin B] | stabilize p53 |  |  |  |  |  |  |  |  |  |  |  |  |  |  |  |  | 
